Drawing on BindingDB's records for doi:10.1016/j.bmc.2013.11.045 (Northern Kentucky University, 2013), this text covers IC50 for two compounds.

The test in a line: Inhibition of aromatase in human MCF7 cells.

In general, IC50 refers to the midpoint of a concentration-inhibition curve. A lower IC50 goes with greater potency in that assay.

As to `O=C1c2ccccc2OCC1c1ccc(Oc2ccccc2)cc1` (configuration not stated), the IC50 came to 17 µM. With `O=C1c2ccccc2OCC1c1cccnc1` (configuration not stated) the figure was 44 µM.
